In PubChem BioAssay (NCI):
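Dose response: 5 concentrations. Exposure: 48 h. Format: 96-well plates. Endpoint: linear interpolation; highest concentration if not reached. The concentration for 50% growth inhibition is given as GI50. At the TGI there is no net growth.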

Assays:
Assay in all cases: NCI anticancer screen, dose series, 48 h
SN12C renal = test system: SN12C renal
IGROV1 ovarian = test system: IGROV1 ovarian
SNB-19 CNS = test system: SNB-19 CNS
HOP-92 NSCLC = test system: HOP-92 NSCLC
NCI-H226 lung = test system: NCI-H226 lung
OVCAR-5 ovarian = test system: OVCAR-5 ovarian
PC-3 prostate = test system: PC-3 prostate
SF-295 CNS = test system: SF-295 CNS
TK-10 renal = test system: TK-10 renal
UO-31 renal = test system: UO-31 renal
OVCAR-3 ovarian = test system: OVCAR-3 ovarian
OVCAR-8 ovarian = test system: OVCAR-8 ovarian
CAKI-1 renal = test system: CAKI-1 renal
U251 CNS = test system: U251 CNS
BT-549 breast = test system: BT-549 breast
LOX IMVI melanoma = test system: LOX IMVI melanoma
DU-145 prostate = test system: DU-145 prostate
COLO 205 colon = test system: COLO 205 colon
NCI-H522 lung = test system: NCI-H522 lung
NCI-H23 lung = test system: NCI-H23 lung
HT29 colon = test system: HT29 colon
NCI/ADR-RES ovarian = test system: NCI/ADR-RES ovarian
RXF 393 renal = test system: RXF 393 renal
SK-MEL-5 melanoma = test system: SK-MEL-5 melanoma
MDA-MB-468 breast = test system: MDA-MB-468 breast
MDA-MB-435 = test system: MDA-MB-435
A498 renal = test system: A498 renal
786-0 renal = test system: 786-0 renal
OVCAR-4 ovarian = test system: OVCAR-4 ovarian
HOP-62 NSCLC = test system: HOP-62 NSCLC

## COc1ccc(/C=C/C(=O)c2ccc(N3CCN(C)CC3)cc2)c(C(F)(F)F)c1
SN12C renal
  TGI: 26.4 µM
IGROV1 ovarian
  GI50: 15.4 µM
  TGI: 29 µM
SNB-19 CNS
  GI50: 14.8 µM
  TGI: 27.9 µM
HOP-92 NSCLC
  GI50: 10.1 µM
  TGI: 25.8 µM
NCI-H226 lung
  GI50: 12.4 µM
  TGI: 28.3 µM
OVCAR-5 ovarian
  GI50: 16.2 µM
  TGI: 29.7 µM
PC-3 prostate
  GI50: 13.2 µM
  TGI: 40.4 µM
SF-295 CNS
  GI50: 13.9 µM
  TGI: 27.2 µM
TK-10 renal
  GI50: 17.7 µM
  TGI: 32.8 µM
UO-31 renal
  GI50: 12.3 µM
  TGI: 24.7 µM
OVCAR-3 ovarian
  GI50: 14.4 µM
  TGI: 29.3 µM
OVCAR-8 ovarian
  GI50: 20.8 µM
  TGI: 49.3 µM
CAKI-1 renal
  GI50: 14.2 µM
  TGI: 27.5 µM
U251 CNS
  GI50: 11.7 µM
  TGI: 34.4 µM
BT-549 breast
  GI50: 14.5 µM
  TGI: 29.1 µM
LOX IMVI melanoma
  GI50: 8.56 µM
  TGI: 20.9 µM
DU-145 prostate
  GI50: 14.9 µM
  TGI: 31.2 µM
COLO 205 colon
  GI50: 15.6 µM
  TGI: 35.5 µM
NCI-H522 lung
  GI50: 15.9 µM
  TGI: 31.9 µM
NCI-H23 lung
  GI50: 11.2 µM
  TGI: 23.2 µM
HT29 colon
  GI50: 4.88 µM
  TGI: 22.3 µM
NCI/ADR-RES ovarian
  GI50: 13.2 µM
  TGI: 26.4 µM
RXF 393 renal
  GI50: 4.12 µM
  TGI: 18.9 µM
SK-MEL-5 melanoma
  GI50: 7.97 µM
  TGI: 20.6 µM
MDA-MB-468 breast
  GI50: 3.54 µM
  TGI: 13.9 µM
MDA-MB-435
  GI50: 11.3 µM
  TGI: 24.7 µM
A498 renal
  GI50: 16.5 µM
  TGI: 30.8 µM
786-0 renal
  GI50: 12.5 µM
  TGI: 37.7 µM
OVCAR-4 ovarian
  GI50: 15.5 µM
  TGI: 34.4 µM
HOP-62 NSCLC
  GI50: 19.3 µM
  TGI: 37 µM
